5 molecules from publication PMC6151588, “Four Prenylflavone Derivatives with Antiplasmodial Activities from the Stem of Tephrosia purpurea subsp. leptostachya” (Molecules : A Journal of Synthetic Chemistry and Natural …, 2017) can be followed below.

Entries after “also recorded” stand apart in the source; their conditions may differ. Where two headings read alike, the source gives them in different places.

In data set [1] the test system is chloroquine-sensitive D6 strain of Plasmodium falciparum. The data set is described as follows: In vitro antiplasmodial activity, non-radioactive (fluorescence-based) assay. It counts as cell-based. The settings on record: for IC50: Plasmodium falciparum; for Antiplasmodial activity in words: D6 strain of Plasmodium falciparum. As to the method:
The pure compounds were assayed using a non-radioactive assay technique as described by […] al., 2004 [32] with modifications given in the literature.

Data set [2] can be described thus: MTT cytotoxicity assay, BEAS. The settings on record: human, non-tumoral cell. It counts as cell-based. As to the method:
(§1) A549, HepG2, and non-tumoral cells were all purchased from ATCC. Cells were cultured in RPMI 1640 medium supplemented with 10% fetal bovine serum and antibiotics penicillin (50 U/mL) and streptomycin (50 μg/mL; Invitrogen, Paisley, Scotland, UK). All cell cultures were incubated at 37 °C in a 5% humidified CO2 incubator. All tested compounds were dissolved in DMSO at a final concentration of 50 mmol/L and stored at −20 °C before use. Cytotoxicity was assessed by using the 3-(4,5-dimethylthiazol-2-yl)-2,5-diphenyltetrazolium bromide (MTT) (5.0 mg/mL) assay as previously described. Briefly, 4 × 10^3 cells per well were seeded in 96-well plates before drug treatments. After overnight culture, the cells were then exposed to different concentrations of selected compounds (0.039–100 μmol/L) for 72 h. Cells without drug treatment were used as the control. Subsequently, MTT (10 μL) solution was added to each well and incubated at 37 °C for 4 h followed by the addition of 100 μL solubilization buffer (10% SDS in 0.01 mol/L HCl) and overnight incubation. A570 nm was then determined in each well on the next day. The percentage of cell viability was calculated using the following formula: Cell viability (%) = Atreated/Acontrol × 100. Data were obtained from three independent experiments and the standard error was calculated.

Data set [3] concerns two non-tumoral and two cancerous cell-lines (LO2, BEAS, A549, HepG2). The data set is described as follows: MTT cytotoxicity, summary over the four cell-lines. It is filed as cell-based. As to the method: as §1
A short description of data set [4]: MTT cytotoxicity, summary over the four cell-lines. It counts as cell-based. Particulars: human, two non-tumoral and two cancerous cell-lines; read-out: Cytotoxicity IC50 against four cell-lines. As to the method: as §1
Data set [5] can be described thus: MTT cytotoxicity assay, LO2. The settings on record: human, LO2 cells (immortal hepatic cell line), non-tumoral cell. It counts as cell-based. As to the method: as §1
Data set [6] can be described thus: MTT cytotoxicity assay, A549. It is filed as cell-based. The settings on record: human, A549 cells (adenocarcinomic alveolar basal epithelial cells), cancer cell. As to the method: as §1
A short description of data set [7]: MTT cytotoxicity assay, HepG2. It is filed as cell-based. The settings on record: human, HepG2 cells (liver cancer cell line). As to the method:
as §1

Setting [8] is: D6 strain, in vitro, read-out: Antiplasmodial activity against P. falciparum D6, IC50.

For the molecule `CCN(CC)CCCC(C)Nc1ccnc2cc(Cl)ccc12` (stereo not drawn) [Chloroquine, reference compound], in data set [1] (D6, read-out: Antiplasmodial activity against P. falciparum D6, IC50), the half-maximal inhibitory concentration (IC50) was determined as 0.037 ± 0.003 µM.
Regarding `COc1cc(O)c2c(=O)cc(-c3ccccc3)oc2c1/C=C/C(C)(C)O` [Compound 1, (E)-5-hydroxy-8-(3-hydroxy-3-methylbut-1-en-1-yl)-7-methoxy-2-phenyl-4H-chromen-4-one], the concentration for half-maximal inhibition (IC50) at 72 h is 24.5 ± 2.7 µM in data set [2]; 21 to 100 µM in data set [4]; 21.7 ± 4.8 µM in data set [5]; 76.1 ± 2.9 µM in data set [6]; more than 100 µM in data set [7]. For the same molecule, the Selectivity index in data set [3] (cytotoxicity versus antiplasmodial activity (D6)) is more than 12. Moreover, the IC50 is more than 21 µM in data set [3] (two non-tumoral and two cancerous cell-lines, read-out: Cytotoxicity IC50 against four cell-lines); 1.7 ± 0.1 µM in data set [1] (setting [8]). Further, the “Antiplasmodial activity in words” value in data set [1] is on record as “good activity; also recorded: the most active”.
As for `COc1cc(O)c2c(=O)cc(-c3ccccc3)oc2c1/C=C/C(C)=O` [Compound 2, (E)-5-hydroxy-7-methoxy-8-(3-oxobut-1-en-1-yl)-2-phenyl-4H-chromen-4-one], the IC50 at 72 h in data set [2], in data set [5], in data set [6] and in data set [7] was more than 100 µM each time.
`COc1cc(OC(C)=O)c(C2COC(C)(C)C2=O)c2oc(-c3ccccc3)cc(=O)c12` (stereo not drawn) [Compound 4, 8-(5,5-dimethyl-4-oxotetrahydrofuran-3-yl)-5-methoxy-4-oxo-2-phenyl-4H-chromen-7-yl acetate]: the melting point fell in the range of 210 to 214 °C. The same molecule displayed an IC50 at 72 h in data set [2] of more than 100 µM. The molecule also registered a 50% inhibitory concentration (IC50) at 72 h in data set [5] of more than 100 µM. The same molecule gave an IC50 at 72 h in data set [6] of more than 100 µM. Moreover, the “Antiplasmodial activity in words” value in data set [1] is given as “low antiplasmodial activities”. The half-inhibitory concentration (IC50) in data set [1] (setting [8]) came to 14.8 ± 3.2 µM. Moreover, the half-inhibitory concentration (IC50) at 72 h in data set [7] was more than 100 µM.
As to `COc1cc(OC)c2c(=O)cc(-c3ccccc3)oc2c1C1=COC(C)(C)C1=O` [Compound 9, tachrosin], the IC50 at 72 h in data set [2], in data set [5], in data set [6] and in data set [7] was more than 100 µM each time. Further, the “Antiplasmodial activity in words” value in data set [1] is “low antiplasmodial activities”. Besides, the 50% inhibitory concentration (IC50) in data set [1] (setting [8]) was found to be 27.1 ± 3.2 µM.
